According to US10030047B2 (Hoffmann-La Roche Inc., priority 2015, dated 2018):
In brackets after ≈: the same amount, converted by molar mass.

These compounds were tested on A. baumannii strain ATCC19606 (assay: Minimum inhibitory concentration (MIC) determination, microbroth dilution (CLSI)). Settings: Acinetobacter baumannii; A. baumannii ATCC19606; CAMHB; read after 20 hours; >=80% growth inhibition; read-out: ATCC19606 MIC.
Format: cell-based
Outline: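 CLSI broth microdilution in cation-adjusted Mueller Hinton broth with twofold compound dilutions and ~5×10^5 CFU/ml inoculum, incubated at 35±2 °C. MIC read after 20 h as lowest concentration inhibiting ≥80% of growth, by eye and OD 600 nm.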

Compound | MIC [µg/mL]
Cc1[nH]c2ccccc2c1C[C@H]1C(=O)NCc2cc(C#N)cc(Cl)c2Sc2ncccc2CN[C@@H](CCCN)C(=O)N[C@@H](CCCCN)C(=O)N1C [Example 233, (11S,14S,17S)-14-(4-Amino-butyl)-11-(3-amino-propyl)-25-chloro-16-methyl-17-(2-methyl-1H-indol-3-ylmethyl)-12,15,18-trioxo-2-thia-4,10,13,16,19-pentaaza-tricyclo[19.4.0.0*3,8*]pentacosa-1(25),3(8),4,6,21,23-hexaene-23-carbonitrile] | 0.25 (≈ 0.336 µM)
Cc1[nH]c2ccccc2c1C[C@H]1C(=O)NCc2cc(-c3ccc(S(C)(=O)=O)cc3)cc(Cl)c2Sc2ncccc2CN[C@@H](CCCN)C(=O)N[C@@H](CCCCN)C(=O)N1C [Example 234, (11S,14S,17S)-14-(4-Amino-butyl)-11-(3-amino-propyl)-25-chloro-23-(4-methanesulfonyl-phenyl)-16-methyl-17-(2-methyl-1H-indol-3-ylmethyl)-2-thia-4,10,13,16,19-pentaaza-tricyclo[19.4.0.0*3,8*]pentacosa-1(25),3(8),4,6,21,23-hexaene-12,15,18-trione] | 2 (≈ 2.29 µM)
Cc1[nH]c2ccccc2c1C[C@H]1C(=O)NCc2cc(-c3ccc(S(N)(=O)=O)cc3)cc(Cl)c2Sc2ncccc2CN[C@@H](CCCN)C(=O)N[C@@H](CCCCN)C(=O)N1C [Example 235, 4-[(11S,14S,17S)-14-(4-Amino-butyl)-11-(3-amino-propyl)-25-chloro-16-methyl-17-(2-methyl-1H-indol-3-ylmethyl)-12,15,18-trioxo-2-thia-4,10,13,16,19-pentaaza-tricyclo[19.4.0.0*3,8*]pentacosa-1(25),3(8),4,6,21,23-hexaen-23-yl]-benzenesulfonamide] | 0.5 (≈ 0.572 µM)

The compounds below were run on A. baumannii strain ATCC17978 (assay: 50% growth inhibitory concentration (IC50) determination, Iso-Sensitest broth). Settings: Acinetobacter baumannii; A. baumannii ATCC17978; Iso-Sensitest medium; OD 600 nm over 16 h; read-out: IC50 ATCC17978.
Format: cell-based
Procedure: The in vitro antimicrobial activity of the compounds was alternatively determined according to the following procedure:
The assay used a 10-points Iso-Sensitest broth medium to measure quantitatively the in vitro activity of the compounds against A. baumannii ATCC 17978.
Stock compounds in DMSO were serially twofold diluted (e.g. range from 50 to 0.097 μM final concentration) in 384 wells microtiter plates and inoculated with 49 μl the bacterial suspension in Iso-Sensitest medium to have a final cell concentration of ˜5×10^(5) CFU/ml in a final volume/well of 50 ul/well. Microtiter plates were incubated at 35±2° C.
Bacterial cell growth was determined with the measurement of optical density at λ=600 nm each 20 minutes over a time course of 16 h.
Growth inhibition was calculated during the logarithmic growth of the bacterial cells with determination of the concentration inhibiting 50% (IC50) and 90% (IC90) of the growth.
Tables 3, 4 and 5 provide the 50% growth inhibitory concentrations (IC50) in micromoles per liter of the compounds of present invention obtained against the A. baumannii strain ATCC17978.

Compound | IC50 [nM]
CN1Cc2ccccc2Sc2ccccc2CNC(=O)[C@H](Cc2c[nH]c3ccccc23)NC(=O)[C@H](CCCN)NC(=O)[C@@H]1Cc1ccc(-c2ccccc2)cc1 [Example 117, (12S,15S,18S)-15-(3-Amino-propyl)-18-biphenyl-4-ylmethyl-12-(1H-indol-3-ylmethyl)-19-methyl-2-thia-10,13,16,19-tetraaza-tricyclo[19.4.0.0*3,8*]pentacosa-1(25),3,5,7,21,23-hexaene-11,14,17-trione] | 8100
NCCCC[C@@H]1NC(=O)[C@@H](CCCN)NCc2cccnc2Sc2c(ccc(-c3ccccc3)c2Cl)CNC(=O)[C@H](Cc2c[nH]c3ccccc23)NC1=O [Example 124, (11R,14S,17S)-14-(4-Amino-butyl)-11-(3-amino-propyl)-25-chloro-17-(1H-indol-3-ylmethyl)-24-phenyl-2-thia-4,10,13,16,19-pentaaza-tricyclo[19.4.0.0*3,8*]pentacosa-1(25),3,5,7,21,23-hexaene-12,15,18-trione] | 34900
NCCCC[C@@H]1NC(=O)[C@H](CCCN)NCc2cccnc2Sc2c(ccc(-c3ccccc3)c2Cl)CNC(=O)[C@H](Cc2c[nH]c3ccccc23)NC1=O [Example 125, (11S,14S,17S)-14-(4-Amino-butyl)-11-(3-amino-propyl)-25-chloro-17-(1H-indol-3-ylmethyl)-24-phenyl-2-thia-4,10,13,16,19-pentaaza-tricyclo[19.4.0.0*3,8*]pentacosa-1(25),3,5,7,21,23-hexaene-12,15,18-trione] | 23300
CN1C(=O)[C@H](CCCCN)NC(=O)[C@@H](CCCN)NCc2cccnc2Sc2c(ccc(-c3ccccc3)c2Cl)CNC(=O)[C@@H]1Cc1c[nH]c2ccccc12 [Example 126, (11R,14S,17S)-14-(4-Amino-butyl)-11-(3-amino-propyl)-25-chloro-17-(1H-indol-3-ylmethyl)-16-methyl-24-phenyl-2-thia-4,10,13,16,19-pentaaza-tricyclo[19.4.0.0*3,8*]pentacosa-1(25),3,5,7,21,23-hexaene-12,15,18-trione] | 30300
CN1C(=O)[C@H](CCCCN)NC(=O)[C@H](CCCN)NCc2cccnc2Sc2c(Cl)ccc(C(F)(F)F)c2CNC(=O)[C@@H]1Cc1ccc2ccccc2n1 [Example 132, (11S,14S,17S)-14-(4-Amino-butyl)-11-(3-amino-propyl)-25-chloro-16-methyl-17-quinolin-2-ylmethyl-22-trifluoromethyl-2-thia-4,10,13,16,19-pentaaza-tricyclo[19.4.0.0*3,8*]pentacosa-1(25),3,5,7,21,23-hexaene-12,15,18-trione] | 17000
CN1C(=O)[C@H](CCCN)NC(=O)[C@H](CCCN)NCc2ccccc2Sc2c(Cl)cc(Cl)cc2CNC(=O)[C@@H]1Cc1c[nH]c2ccccc12 [Example 133, (12S,15S,18S)— 15,18-Bis-(3-amino-propyl)-4,6-dichloro-12-(1H-indol-3-ylmethyl)-13-methyl-2-thia-10,13,16,19-tetraaza-tricyclo[19.4.0.0*3,8*]pentacosa-1(25),3,5,7,21,23-hexaene-11,14,17-trione] | 100
CN1C(=O)[C@H](CCCCN)NC(=O)[C@H](CCCN)NCc2cccnc2Sc2c(Cl)ccc(C(F)(F)F)c2CNC(=O)[C@@H]1Cc1c[nH]c2ccc(Cl)cc12 [Example 135, (11S,14S,17S)-14-(4-Amino-butyl)-11-(3-amino-propyl)-25-chloro-17-(5-chloro-1H-indol-3-ylmethyl)-16-methyl-22-trifluoromethyl-2-thia-4,10,13,16,19-pentaaza-tricyclo[19.4.0.0*3,8*]pentacosa-1(25),3,5,7,21,23-hexaene-12,15,18-trione] | 200
CN1C(=O)[C@H](CCCCN)NC(=O)[C@H](CCCN)NCc2cccnc2Sc2c(Cl)ccc(C(F)(F)F)c2CNC(=O)[C@@H]1CC1CNc2ccccc21 (stereo partly drawn) [Example 136, (11S,14S,17S)-14-(4-Amino-butyl)-11-(3-amino-propyl)-25-chloro-17-(2,3-dihydro-1H-indol-3-ylmethyl)-16-methyl-22-trifluoromethyl-2-thia-4,10,13,16,19-pentaaza-tricyclo[19.4.0.0*3,8*]pentacosa-1(25),3,5,7,21,23-hexaene-12,15,18-trione] | 600
CN1C(=O)[C@H](CCCCN)NC(=O)[C@H](CCCN)NCc2ccccc2Sc2c(Cl)cc(-c3ccccc3)cc2CNC(=O)[C@@H]1Cc1c[nH]c2ccccc12 [Example 140, (12S,15S,18S)-15-(4-Amino-butyl)-18-(3-amino-propyl)-4-chloro-12-(1H-indol-3-ylmethyl)-13-methyl-6-phenyl-2-thia-10,13,16,19-tetraaza-tricyclo[19.4.0.0*3,8*]pentacosa-1(25),3,5,7,21,23-hexaene-11,14,17-trione] | 600
CN1C(=O)[C@H](CCCCN)NC(=O)[C@H](CCCN)NCc2ccccc2Sc2c(Cl)cc(-c3ccccc3Cl)cc2CNC(=O)[C@@H]1Cc1c[nH]c2ccccc12 [Example 141, (12S,15S,18S)-15-(4-Amino-butyl)-18-(3-amino-propyl)-4-chloro-6-(2-chloro-phenyl)-12-(1H-indol-3-ylmethyl)-13-methyl-2-thia-10,13,16,19-tetraaza-tricyclo[19.4.0.0*3,8*]pentacosa-1(25),3,5,7,21,23-hexaene-11,14,17-trione] | 1300
CN1C(=O)[C@H](CCCCN)NC(=O)[C@H](CCCN)NCc2ccccc2Sc2c(Cl)cc(-c3cccnc3)cc2CNC(=O)[C@@H]1Cc1c[nH]c2ccccc12 [Example 142, (12S,15S,18S)-15-(4-Amino-butyl)-18-(3-amino-propyl)-4-chloro-12-(1H-indol-3-ylmethyl)-13-methyl-6-pyridin-3-yl-2-thia-10,13,16,19-tetraaza-tricyclo[19.4.0.0*3,8*]pentacosa-1(25),3,5,7,21,23-hexaene-11,14,17-trione] | < 400
CN1C(=O)[C@H](CCCCN)NC(=O)[C@H](CCCN)NCc2ccccc2Sc2c(Cl)cc(-c3ccncc3)cc2CNC(=O)[C@@H]1Cc1c[nH]c2ccccc12 [Example 143, (12S,15S,18S)-15-(4-Amino-butyl)-18-(3-amino-propyl)-4-chloro-12-(1H-indol-3-ylmethyl)-13-methyl-6-pyridin-4-yl-2-thia-10,13,16,19-tetraaza-tricyclo[19.4.0.0*3,8*]pentacosa-1(25),3,5,7,21,23-hexaene-11,14,17-trione] | < 400
CN1C(=O)[C@H](CCCCN)NC(=O)[C@H](CCCN)NCc2ccccc2Sc2c(Cl)cc(Br)cc2CNC(=O)[C@@H]1Cc1c[nH]c2ccccc12 [Example 151, (12S,15S,18S)-15-(4-Amino-butyl)-18-(3-amino-propyl)-6-bromo-4-chloro-12-(1H-indol-3-ylmethyl)-13-methyl-2-thia-10,13,16,19-tetraaza-tricyclo[19.4.0.0*3,8*]pentacosa-1(25),3,5,7,21,23-hexaene-11,14,17-trione] | 200
CN1C(=O)[C@H](CCCCN)NC(=O)[C@H](CCCN)NCc2ccccc2Sc2c(Cl)ncc(Cl)c2CNC(=O)[C@@H]1Cc1c[nH]c2ccccc12 [Example 152] | < 390
CN1C(=O)[C@H](CCCCN)NC(=O)[C@H](CCCN)NCc2ccccc2Sc2cnc(Cl)cc2CNC(=O)[C@@H]1Cc1c[nH]c2ccccc12 [Example 153] | < 390
